# Measurements taken from patent US12215085B2 (priority 2019, dated 2025).
# Columns and labels:
# [1] = system: rats with beta-amyloid induced senile dementia; assay: Step-down test, beta-amyloid induced senile dementia rats; format: in vivo, rat; settings: 2.8 mg/kg, P<0.05
# mice = assay: General pharmacological study in mice; format: in vivo
compound,measurement,setting,value
"Nc1c2c(nc3c1CCCC3)CCCC2.O=C(O)CCC(=O)O [Crystal Form A, 9-amino-1,2,3,4,5,6,7,8-octahydroacridine succinate]",step-down error number vs model group,[1]; Day 1 and Day 2,obviously reduced
same,error latency vs model group,[1]; Day 2,obviously prolonged
same,"general state, autonomous activity and coordinated movement of the mice","mice; 4, 8, 16 mg/kg once intragastric",no significant influence
same,sleep number of animals with subthreshold dose of pentobarbital sodium,"mice; 4, 8 and 16 mg/kg once intragastric",no obvious influence
